According to paper PMC6538641 (2019):

What was measured:
[1] = test system: AS1411 (DNA, G4) GGTGGTGGTGGTTGTGGTGGTGGTGG; assay: CD melting; conditions: 10 mM KCl, 90 mM LiCl; 10 mM lithium cacodylate, pH 7.2; 2 molar equivalents C8; Tm without ligand 56.3 °C
[2] = test system: U-AS1411 (DNA, G4, uracil in place of thymine at 12 and 13 (text: dT to rU substitutions)) GGTGGTGGTGGUUGTGGTGGTGGTGG; assay: CD melting; conditions: 10 mM KCl, 90 mM LiCl; 10 mM lithium cacodylate, pH 7.2; 2 molar equivalents C8; Tm without ligand 52.6 °C
[3] = test system: 5'-FAM-AS1411-TAMRA-3' (DNA, G4) GGTGGTGGTGGTTGTGGTGGTGGTGG; assay: FRET melting; conditions: 10 mM KCl, 90 mM LiCl; 10 mM lithium cacodylate, pH 7.2; 1 µM C8, 0.2 µM DNA; no nucleolin; Tm 46.9 °C
[4] = test system: AS1411 (DNA, G4) GGTGGTGGTGGTTGTGGTGGTGGTGG; assay: fluorescence titration of ligand, Hill model; conditions: 100 mM KCl, 30 mM potassium phosphate; pH 7.2; 5 μM C8; apparent; Hill n 2.8; SD ≤ 1 × 10^−8 M
[5] = test system: U-AS1411 (DNA, G4, uracil in place of thymine at 12 and 13 (text: dT to rU substitutions)) GGTGGTGGTGGUUGTGGTGGTGGTGG; assay: fluorescence titration of ligand, Hill model; conditions: 100 mM KCl, 30 mM potassium phosphate; pH 7.2; 5 μM C8; apparent; Hill n 2.5; SD ≤ 1 × 10^−8 M
[6] = target: nucleolin (UniProt P19338); assay: fluorescence titration; conditions: Fluorescence titration: buffer for the nucleolin titration not stated separately (C8-aptamer titrations: 30 mM potassium phosphate pH 7.2, 100 mM KCl)
Sequence of UniProt P19338 (P19338 whole entry): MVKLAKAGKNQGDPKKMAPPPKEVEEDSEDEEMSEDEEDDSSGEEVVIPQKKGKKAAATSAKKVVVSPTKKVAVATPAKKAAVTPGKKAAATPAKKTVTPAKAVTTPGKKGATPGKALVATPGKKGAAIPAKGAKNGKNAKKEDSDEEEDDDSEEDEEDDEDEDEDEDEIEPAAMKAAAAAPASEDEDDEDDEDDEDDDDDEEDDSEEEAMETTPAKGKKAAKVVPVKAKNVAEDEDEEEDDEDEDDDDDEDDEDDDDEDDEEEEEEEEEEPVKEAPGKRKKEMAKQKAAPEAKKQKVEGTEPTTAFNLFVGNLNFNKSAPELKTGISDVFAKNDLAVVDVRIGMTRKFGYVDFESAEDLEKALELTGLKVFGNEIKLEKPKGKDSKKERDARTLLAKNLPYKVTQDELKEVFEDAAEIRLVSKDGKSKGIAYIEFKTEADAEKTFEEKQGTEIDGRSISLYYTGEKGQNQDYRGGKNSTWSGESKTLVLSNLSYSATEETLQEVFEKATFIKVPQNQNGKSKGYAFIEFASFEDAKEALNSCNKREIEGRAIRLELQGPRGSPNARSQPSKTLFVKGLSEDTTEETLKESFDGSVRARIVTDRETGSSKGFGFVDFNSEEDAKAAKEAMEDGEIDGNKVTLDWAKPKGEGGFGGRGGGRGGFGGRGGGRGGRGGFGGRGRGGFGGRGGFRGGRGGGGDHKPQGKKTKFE

Compound | ΔTm [1] | ΔTm [2] | ΔTm [3] | KD [4] | KD [5] | Kd ([6]; no C8, Cy3-AS1411 at 1 uM (Kd far below probe concentration)) | Kd ([6]; with ligand C8, Cy3-AS1411 at 1 uM (Kd far below probe concentration))
CN(C)c1ccc2cc3ccc(N(C)C)cc3[n+](CCCCCCCCNC(=O)c3ccc(I)cc3)c2c1 | 28.4 ± 0.2 °C | 24.5 ± 0.4 °C | 13.1 ± 0.8 °C | 1.29 µM | 1.37 µM |  | 
GGTGGTGGTGGTTGTGGTGGTGGTGG [Cy3-AS1411] |  |  |  |  |  | 8.63 pM | 6.38 pM
